According to article PMC5155509 (ChemMedChem, 2016):
Values after ≈ are worked out from the molar mass of the structure shown. Values joined by “and” are separate entries in the source; they are usually repeats but may differ in a detail not shown here. Equal entries are not always repeated. Where two headings read alike, the source gives them in different places.

Assays:
B. subtilis [1] = assay: Synergy/antagonism two-drug combination assay, B. subtilis; format: cell-based, Bacillus subtilis; settings: for FIC antibiotic / FIC Index / Mean FICI / FIC 7: B. subtilis; for FIC antibiotic: antibiotic in combination with 7, mean±SD duplicate; for FIC Index: combination of the antibiotic with 7, mean±SD; for MIC: Bacillus subtilis
S. aureus = assay: Synergy/antagonism two-drug combination assay, S. aureus; format: cell-based, Staphylococcus aureus; settings: for FIC antibiotic / FIC Index / Mean FICI / FIC 7: S. aureus; for FIC antibiotic: antibiotic in combination with 7, mean±SD duplicate; for FIC Index: combination of the antibiotic with 7, mean±SD; for MIC: Staphylococcus aureus
B. subtilis [2] = settings: earlier work of the authors, no reference given; cited from earlier work
E. coli = settings: earlier work of the authors, no reference given; cited from earlier work
E. coli UPPS (EcUPPS) = settings: read-out: IC50 EcUPPS; previous work ref 3b; cited from earlier work
B. subtilis [3] = assay: B. subtilis growth inhibition assay; format: cell-based, Bacillus subtilis; settings: 12 hours at 37°C, OD600
SaUPPS = target: T1, SaUPPS (Staphylococcus aureus, UniProt P60477); assay: biochemical; format: biochemical
T1 sequence (P60477 1-256): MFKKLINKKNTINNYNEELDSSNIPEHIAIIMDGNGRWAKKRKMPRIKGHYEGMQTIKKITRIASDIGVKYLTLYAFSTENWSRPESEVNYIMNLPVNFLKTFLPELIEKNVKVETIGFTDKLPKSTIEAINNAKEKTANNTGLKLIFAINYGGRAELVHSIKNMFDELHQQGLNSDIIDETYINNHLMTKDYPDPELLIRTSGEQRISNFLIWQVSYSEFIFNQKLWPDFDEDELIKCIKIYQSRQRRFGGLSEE

[4] = target: EcUPPP (fusion hybrid of E. coli UPPP with Haloarcula marismortui bacteriorhodopsin) (UniProt P60932+Q5UXY6, D94N); format: biochemical; settings: read-out: IC50 EcUPPP
[5] = test system: Staphylococcus aureus and Bacillus subtilis; assay: Bacterial cell growth inhibition, bacterium not specified at the place; format: cell-based
NCI-H460 cells = assay: H460 cell toxicity; format: cell-based, human; settings: 24 h, MTT
[6] = test system: S. aureus and B. subtilis; assay: Synergy/antagonism assays, average over B. subtilis and S. aureus combinations; format: cell-based
[7] = 7 with inhibitors targeting cell wall biosynthesis
[8] = 7 with inhibitors targeting nucleic acids and protein biosynthesis

EcUPPP (fusion hybrid of E. coli UPPP with Haloarcula marismortui bacteriorhodopsin), sequence (P60932 whole entry, looked up, the tested form may be a part): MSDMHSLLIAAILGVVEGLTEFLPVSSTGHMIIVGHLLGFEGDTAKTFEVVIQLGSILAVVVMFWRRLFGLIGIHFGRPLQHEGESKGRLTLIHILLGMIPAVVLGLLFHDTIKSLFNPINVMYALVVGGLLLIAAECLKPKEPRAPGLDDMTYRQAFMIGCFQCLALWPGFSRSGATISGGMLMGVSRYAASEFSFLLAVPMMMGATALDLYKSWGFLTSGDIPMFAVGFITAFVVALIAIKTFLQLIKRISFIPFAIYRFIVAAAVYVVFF
EcUPPP (fusion hybrid of E. coli UPPP with Haloarcula marismortui bacteriorhodopsin), sequence (Q5UXY6 whole entry, looked up, stated change not applied, the tested form may be a part): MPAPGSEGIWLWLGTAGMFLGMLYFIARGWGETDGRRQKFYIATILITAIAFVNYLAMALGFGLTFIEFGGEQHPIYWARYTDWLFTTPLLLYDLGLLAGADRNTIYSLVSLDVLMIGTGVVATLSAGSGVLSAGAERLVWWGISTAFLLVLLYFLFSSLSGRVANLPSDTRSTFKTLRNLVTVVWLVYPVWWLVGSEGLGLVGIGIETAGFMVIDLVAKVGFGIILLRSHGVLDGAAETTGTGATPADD

Compound: CC1(C)S[C@@H]2[C@H](NC(=O)[C@H](N)c3ccccc3)C(=O)N2[C@H]1C(=O)O [Ampicillin, ampicillin]
- FIC antibiotic (B. subtilis [1]): 0.30 ± 0.072
- FIC Index (B. subtilis [1]): 0.53 ± 0.11
- MIC (B. subtilis [1]; 24 h, read-out: MIC antibiotic): 0.5 µg/mL
- FIC antibiotic (S. aureus): 0.41 ± 0.17
- FIC Index (S. aureus): 0.56 ± 0.18
- MIC (S. aureus; 24 h, read-out: MIC antibiotic): 0.5 µg/mL

Compound: O=C(N[C@H](CO)[C@H](O)c1ccc([N+](=O)[O-])cc1)C(Cl)Cl [Chloramphenicol, chloramphenicol]
- FIC antibiotic (B. subtilis [1]): 0.75 ± 0.18
- FIC Index (B. subtilis [1]): 1.72 ± 0.46
- MIC (B. subtilis [1]; 24 h, read-out: MIC antibiotic): 0.5 µg/mL
- FIC antibiotic (S. aureus): 0.88 ± 0.47
- FIC Index (S. aureus): 1.69 ± 0.56
- MIC (S. aureus; 24 h, read-out: MIC antibiotic): 5 µg/mL

Compound: CN(C)[C@@H]1C(O)=C(C(N)=O)C(=O)[C@@]2(O)C(O)=C3C(=O)c4c(O)cccc4[C@@](C)(O)[C@H]3C[C@@H]12 [Tetracycline, tetracycline]
- FIC antibiotic (B. subtilis [1]): 0.48 ± 0.047
- FIC Index (B. subtilis [1]): 1.04 ± 0.50
- MIC (B. subtilis [1]; 24 h, read-out: MIC antibiotic): 5 µg/mL
- FIC antibiotic (S. aureus): 0.24 ± 0.11
- FIC Index (S. aureus): 0.75 ± 0.26
- MIC (S. aureus; 24 h, read-out: MIC antibiotic): 0.5 µg/mL

Compound: CCCCCCCCCCOc1cccc(C(=O)Nc2ccc([N+](=O)[O-])cc2C(=O)O)c1 [Compound 6, 2-(3-(decyloxy)benzamido)-5-nitrobenzoic acid]
- ED50 against B. subtilis (B. subtilis [2]): 1300 nM
- activity against E. coli (in words) (E. coli): no activity
- IC50 (E. coli UPPS (EcUPPS)): 3000 nM

Compound: CC1(C)S[C@@H]2[C@H](NC(=O)C(C(=O)O)c3ccccc3)C(=O)N2[C@H]1C(=O)O (some centres unmarked) [Carbenicillin, carbenicillin]
- FIC antibiotic (B. subtilis [1]): 0.22 ± 0.073
- FIC Index (B. subtilis [1]): 0.37 ± 0.10
- MIC (B. subtilis [1]; 24 h, read-out: MIC antibiotic): 5 µg/mL
- FIC antibiotic (S. aureus): 0.23 ± 0.048
- FIC Index (S. aureus): 0.30 ± 0.055
- MIC (S. aureus; 24 h, read-out: MIC antibiotic): 15 µg/mL

Compound: CO/N=C(\C(=O)N[C@@H]1C(=O)N2C(C(=O)O)=C(COC(C)=O)CS[C@H]12)c1csc(N)n1 [Cefotaxime, cefotaxime]
- FIC antibiotic (B. subtilis [1]): 0.17 ± 0.026
- FIC Index (B. subtilis [1]): 0.31 ± 0.085
- MIC (B. subtilis [1]; 24 h, read-out: MIC antibiotic): 2.5 µg/mL
- FIC antibiotic (S. aureus): 0.18 ± 0.055
- FIC Index (S. aureus): 0.27 ± 0.063
- MIC (S. aureus; 24 h, read-out: MIC antibiotic): 2 µg/mL

Compound: CN[C@H](CC(C)C)C(=O)N[C@H]1C(=O)N[C@@H](CC(N)=O)C(=O)N[C@H]2C(=O)N[C@H]3C(=O)N[C@H](C(=O)N[C@H](C(=O)O)c4cc(O)cc(O)c4-c4cc3ccc4O)[C@H](O)c3ccc(c(Cl)c3)Oc3cc2cc(c3O[C@@H]2O[C@H](CO)[C@@H](O)[C@H](O)[C@H]2O[C@H]2C[C@](C)(N)[C@H](O)[C@H](C)O2)Oc2ccc(cc2Cl)[C@H]1O [Vancomycin, vancomycin]
- FIC antibiotic (B. subtilis [1]): 0.27 ± 0.24
- FIC Index (B. subtilis [1]): 0.44 ± 0.25
- MIC (B. subtilis [1]; 24 h, read-out: MIC antibiotic): 0.5 µg/mL
- FIC antibiotic (S. aureus): 0.14 ± 0.034
- FIC Index (S. aureus): 0.29 ± 0.071
- MIC (S. aureus; 24 h, read-out: MIC antibiotic): 1.5 µg/mL

Compound: COc1cc(Cc2cnc(N)nc2N)cc(OC)c1OC [Trimethoprim, trimethoprim]
- FIC antibiotic (B. subtilis [1]): 0.66 ± 0.13
- FIC Index (B. subtilis [1]): 1.51 ± 0.32
- MIC (B. subtilis [1]; 24 h, read-out: MIC antibiotic): 0.5 µg/mL
- FIC antibiotic (S. aureus): 0.69 ± 0.32
- FIC Index (S. aureus): 1.26 ± 0.41
- MIC (S. aureus; 24 h, read-out: MIC antibiotic): 15 µg/mL

Compound: O=CN(O)CCCP(=O)(O)O [Fosmidomycin, fosmidomycin]
- FIC antibiotic (B. subtilis [1]): 0.039 ± 0.0053
- FIC Index (B. subtilis [1]): 0.17 ± 0.056
- FIC Index (B. subtilis [1]; listed as fosmidomycin): 0.17
- MIC (B. subtilis [1]; 24 h, read-out: MIC antibiotic): 5 µg/mL

Compound: 2-(N-Methyl-3-(octyloxy)benzamido)phenylphosphonic acid [Compound 31]
- ED50 B. subtilis cell growth (B. subtilis [3]): >100 µg/mL
- IC50 (SaUPPS; read-out: IC50 SaUPPS, 5 μM FPP, 50 μM IPP, pH 7.5): 39000 nM
- IC50 [4]: 6500 nM
- antibacterial activity (in words) ([5]; S. aureus and B. subtilis cell growth): little or no antibacterial activity

Compound: Cc1cc(NS(=O)(=O)c2ccc(N)cc2)no1 [Sulfamethoxazole, sulfamethoxazole]
- FIC antibiotic (B. subtilis [1]): 0.78 ± 0.21
- FIC Index (B. subtilis [1]): 1.72 ± 0.67
- FIC Index (B. subtilis [1]; listed as sulfamethoxazole): 1.72
- MIC (B. subtilis [1]; 24 h, read-out: MIC antibiotic): 200 µg/mL
- FIC antibiotic (S. aureus): 0.54 ± 0.13
- FIC Index (S. aureus): 1.53 ± 0.39
- MIC (S. aureus; 24 h, read-out: MIC antibiotic): 200 µg/mL

Compound: CCCCCCCCOc1cccc(C(=O)Nc2ccc(F)cc2C(=O)O)c1 [Compound 7, 5-Fluoro-2-(3-(octyloxy)benzamido)benzoic acid]
- ED50 B. subtilis cell growth (B. subtilis [3]): 0.14 µg/mL (≈ 0.361 µM)
- IC50 (SaUPPS): 320 nM
- toxicity against human cell line NCI-H460 (in words) (NCI-H460 cells): low activity
- Mean FICI (B. subtilis [1]; [7]): 0.37 and 0.37 ± 0.14
- Mean FICI (B. subtilis [1]; [8]): 1.47 and 1.47 ± 0.28
- FIC 7 (B. subtilis [1]; with Ampicillin): 0.23 ± 0.084
- FIC 7 (B. subtilis [1]; with Bacitracin): 0.36 ± 0.14
- FIC 7 (B. subtilis [1]; with Carbenicillin): 0.15 ± 0.071
- FIC 7 (B. subtilis [1]; with Cefotaxime): 0.14 ± 0.081
- FIC 7 (B. subtilis [1]; with Chloramphenicol): 0.97 ± 0.42
- FIC 7 (B. subtilis [1]; with Fosfomycin): 0.063 ± 0.022
- FIC 7 (B. subtilis [1]; with Fosmidomycin): 0.13 ± 0.056
- FIC 7 (B. subtilis [1]; with Kanamycin): 0.71 ± 0.30
- FIC 7 (B. subtilis [1]; with Sulfamethoxazole): 0.94 ± 0.64
- FIC 7 (B. subtilis [1]; with Tetracycline): 0.57 ± 0.50
- FIC 7 (B. subtilis [1]; with Trimethoprim): 0.85 ± 0.29
- FIC 7 (B. subtilis [1]; with Vancomycin): 0.17 ± 0.063
- MIC (B. subtilis [1]; read-out: MIC 7): 1 µg/mL
- Mean FICI (S. aureus; [7]): 0.32 and 0.32 ± 0.12
- Mean FICI (S. aureus; [8]): 1.42 and 1.42 ± 0.37
- FIC 7 (S. aureus; with Ampicillin): 0.15 ± 0.071
- FIC 7 (S. aureus; with Bacitracin): 0.044 ± 0.019
- FIC 7 (S. aureus; with Carbenicillin): 0.077 ± 0.026
- FIC 7 (S. aureus; with Cefotaxime): 0.084 ± 0.031
- FIC 7 (S. aureus; with Chloramphenicol): 0.81 ± 0.31
- FIC 7 (S. aureus; with Fosfomycin): 0.091 ± 0.034
- FIC 7 (S. aureus; with Kanamycin): 0.83 ± 0.29
- FIC 7 (S. aureus; with Spectinomycin): 0.81 ± 0.32
- FIC 7 (S. aureus; with Sulfamethoxazole): 0.98 ± 0.37
- FIC 7 (S. aureus; with Tetracycline): 0.51 ± 0.24
- FIC 7 (S. aureus; with Trimethoprim): 0.57 ± 0.25
- FIC 7 (S. aureus; with Vancomycin): 0.15 ± 0.062
- MIC (S. aureus; read-out: MIC 7): 1 µg/mL
- FICI on average ([6]; with known cell wall biosynthesis inhibitors, n=13 cell/inhibitor combinations): ~ 0.35
- FICI on average ([6]; with non cell-wall biosynthesis inhibitors, n=12 cell/inhibitor combinations): ~ 1.45
- ED50 bacterial growth ([5]; abstract, bacterium not specified): ~ 0.15 μg/mL

Compound: CN[C@@H]1[C@H](O)[C@H](NC)[C@H]2O[C@@]3(O)C(=O)C[C@@H](C)O[C@H]3O[C@@H]2[C@H]1O [Spectinomycin, spectinomycin]
- FIC antibiotic (S. aureus): 0.75 ± 0.43
- FIC Index (S. aureus): 1.56 ± 0.54
- MIC (S. aureus; 24 h, read-out: MIC antibiotic): 40 µg/mL

Compound: C[C@@H]1O[C@@H]1P(=O)(O)O [Fosfomycin, fosfomycin]
- FIC antibiotic (B. subtilis [1]): 0.16 ± 0.15
- FIC Index (B. subtilis [1]): 0.22 ± 0.15
- MIC (B. subtilis [1]; 24 h, read-out: MIC antibiotic): 200 µg/mL
- FIC antibiotic (S. aureus): 0.20 ± 0.11
- MIC (S. aureus; 24 h, read-out: MIC antibiotic): 200 µg/mL
